According to patent US20070219117A1, “BIDENTATE MOTIF AND METHODS OF USE” (MEDVET SCIENCE PTY LTD, priority 2003, published 2007):
“Also recorded” adds a separate entry of the source.

Columns and labels:
Format in all cases: cell-based
[1] = tested on: primary human neutrophils; experiment: Survival of primary human neutrophils, annexin V-FITC; conditions: for effect on neutrophil survival in response to low concentrations of GM-CSF: 15 μM inhibitor; for cell survival: neutrophils
Method: Survival was determined by annexin V-FITC (Roche) staining essentially as previously described (Guthridge et al., 2000). […] After 48 hours, cells were stained with the 4H1 anti-GMRα mAb and annexin V-FITC. The proportion of GMRα-positive cells remaining viable (annexin V-FITC-negative) after culture was analysed by flow cytometry. […] In some experiments forskolin ICN Biochemicals), H89 (Seikaguku Corporation), LY294002 (Cayman Chemical Company), genestein (Sigma) or AG490 (Biomol) were used.

TF-1 cells = experiment: TF-1 cell survival, annexin V-FITC flow cytometry; conditions: data not shown
Method: Survival was determined by annexin V-FITC (Roche) staining essentially as previously described (Guthridge et al., 2000). Briefly, transduced fetal liver cells were plated in IMDM and either 0.1% or 10% FCS containing either no GM-CSF, […] hGM-CSF or a positive control cytokine cocktail containing 50 ng/ml IL-6 (Peprotech), 100 ng/ml mouse SCF and 10 ng/ml G-CSF (Amgen). After 48 hours, cells were stained with the 4H1 anti-GMRα mAb and annexin V-FITC. The proportion of GMRα-positive cells remaining viable (annexin V-FITC-negative) after culture was analysed by flow cytometry. The regulation of TF-1 cell survival by GM-CSF was determined as previously described (Guthridge et al., 2000; Guthridge et al., 2004). To examine the survival of primary human neutrophils in response to GM-CSF, we modified our previously described assay (Begley et al., 1986). Neutrophils purified by centrifugation through Lymphoprep (Axis-Shield) were plated at 1.5×10^5 cells/ml in IMDM/0.5% FCS containing different concentrations of GM-CSF and cell survival was examined as previously described (Guthridge et al., 2000). In some experiments forskolin ICN Biochemicals), H89 (Seikaguku Corporation), LY294002 (Cayman Chemical Company), genestein (Sigma) or AG490 (Biomol) were used.

[2] = tested on: βc subunit of the GM-CSF receptor (Ser585, Tyr577); experiment: βc immunoprecipitation and phospho-specific immunoblot in TF-1 cells after GM-CSF titration
Method: (§1) Cells were factor-deprived in RPMI containing 0.1% FCS for 24 h and then stimulated for 10 min with different GM-CSF concentrations before lysis as previously described (Guthridge et al., 2000). Human mononuclear cells from normal donors and from leukemic patients were separated from peripheral blood by centrifugation over ficoll. The βc subunit was immunoprecipitated using a mixture of 1C1 and 8E4 anti-βc mAb (1C1/8E4)(1 μg each/immunoprecipitation) and immunoprecipitates subjected to SDS-PAGE and immunoblot analysis. Affinity purified anti-14-3-3 pAb (EB1) were used at a dilution of 1:5000 (Guthridge et al., 2000). Anti-MAP2 mAb (MK12)(Pharmingen) was used at a dilution of 1:5000. Anti-p85 pAb antibodies (UBI) were used at a dilution of 1:1000. The 4G10 anti-phosphotyrosine mAb (UBI) was used at 1 pg/ml. The anti-active-ERK pAb (Promega) was used at 50 ng/ml, the anti-phosphorylated STAT5 mAb (Zymed) was used at 2 μg/ml, the anti-phospho-JAK2 pAb (Affinity Bioreagents) was used at 0.5 μg/ml. Affinity purified anti-βc phospho-577 pAb (Guthridge et al., 2004) were used at a dilution of 1:1000. Antibodies to phospho-Ser585 of βc (Guthridge et al., 2000) were used at a dilution of 1:5000. The phosphorylation of Akt in response to GM-CSF was examined in CTL-EN cells electroporated with the pCMV-AKT-HA plasmid (30 μg DNA/1×10^7 cells)(kindly provided by P. N. Tsichlis). 24 h after electroporation the cells were factor-deprived overnight in DMEM/0.5% FCS. Cells were then stimulated (10^7 cells/time point) with either 1 pM or 1000 pM GM-CSF and lysed in RIPA buffer (150 mM NaCl, 1.0% NP40, 0.5% Deoxycholate, 0.1% SDS, 50 mM Tris pH8.0) and subjected to SDS-PAGE and immunoblot analysis with the anti-phospho-Akt Ser473 pAb (1:1000)(Cell Signalling Technologies).

JAK2, STAT5 and ERK = experiment: Immunoblot of TF-1 lysates for phospho-JAK2, phospho-STAT5 and active ERK; conditions: also βc tyrosine phosphorylation and p85 recruitment
Method: as §1, with “24 h after electroporation the cells were factor-deprived overnight in DMEM/0.5% FCS. Cells were then stimulated (10^7 cells/time point) with either 1 pM or 1000 pM GM-CSF and lysed in RIPA buffer (150 mM NaCl, 1.0% NP40, 0.5% Deoxycholate, 0.1% SDS, 50 mM Tris pH8.0) and subjected to SDS-PAGE and immunoblot analysis with the anti-phospho-Akt Ser473 pAb (1:1000)(Cell Signalling Technologies).” left out

PKA = experiment: Protein kinase A (PKA) kinase assay in TF-1 cells; conditions: 1 pM GM-CSF, up to 30 min, compared with 1000 pM
Method: TF-1 cells were factor-deprived overnight in DMEM containing 0.5% FCS. Cells (4×10^6) were stimulated with GM-CSF or forskolin before lysis in 1 ml 20 mM Tris HCl pH 7.4, 0.5 mM EDTA, 0.5 mM EGTA, 10 mM 2-mercaptoethanol, 5% Glycerol and 2 mM NaF by 20 strokes of a dounce homogenizer on ice. The lysate was centrifuged at 170 g for 15 min and the supernatant then centrifuged at 100,000 g for 1 h at 4° C. The resulting pellet was resuspended in NP40 lysis buffer with a protease/phosphatase inhibitor cocktail (Guthridge et al., 2000; Guthridge et al., 2004). Lysate (2 μl) was then tested for PKA activity by adding 40 μM kemptide, 0.25 μCi [y-^32P] ATP, 1 μM cold ATP, in a buffer containing 10 mM MgCl2, 10 mM Tris HCl pH7.4, 1 mM β-glycerol phosphate and 1 mM DTT. Reactions (20 μl) were incubated at 30° C. for 30 min and aliquots were examined for 32P-labelled kemptide on p81 phosphocellulose filters (Whatman) and liquid scintillation counting (Guthridge et al., 2000).

Akt = Akt Ser473 phosphorylation immunoblot in CTL-EN cells expressing the wt GM-CSF receptor; conditions: 1 pM GM-CSF, compared with 1000 pM GM-CSF
Method: as §1, with “24 h after electroporation the cells were factor-deprived overnight in DMEM/0.5% FCS. Cells were then stimulated (10^7 cells/time point) with either 1 pM or 1000 pM GM-CSF and lysed in RIPA buffer (150 mM NaCl, 1.0% NP40, 0.5% Deoxycholate, 0.1% SDS, 50 mM Tris pH8.0) and subjected to SDS-PAGE and immunoblot analysis with the anti-phospho-Akt Ser473 pAb (1:1000)(Cell Signalling Technologies).” left out

Molecule: N#C/C(=C/c1ccc(O)c(O)c1)C(=O)NCc1ccccc1 [AG490]
- effect on neutrophil survival in response to low concentrations of GM-CSF [1]: Neither inhibitor was able to block; also recorded: survival was increased

Molecule: O=S(=O)(NCCNC/C=C/c1ccc(Br)cc1)c1cccc2cnccc12 [H89]
- effect on ability of GM-CSF to promote survival in TF-1 cells (TF-1 cells): reduced
- effect on GM-CSF-promoted survival of neutrophils ([1]; neutrophils stimulated with GM-CSF): reduced

Molecule: C=C[C@@]1(C)CC(=O)[C@]2(O)[C@@]3(C)[C@@H](O)CCC(C)(C)[C@@H]3[C@H](O)[C@H](OC(C)=O)[C@@]2(C)O1 [forskolin]
- cell survival ([1]; forskolin in the absence of GM-CSF (from 27% without)): 46%

Molecule: O=c1c(-c2ccc(O)cc2)coc2cc(O)cc(O)c12 [genestein]
- effect on neutrophil survival in response to low concentrations of GM-CSF [1]: Neither inhibitor was able to block

Molecule: GM-CSF: cytokine; human GM-CSF used to stimulate cells via the GM-CSF receptor
- cell survival ([1]; 0.1 pM GM-CSF): 90%
- cell survival ([1]; 1 pM GM-CSF): 83%
- GM-CSF concentration at which Tyr577 phosphorylation was detectable ([2]; TF-1 cells, 10 min stimulation): greater than 10 pM
- GM-CSF concentration at which phosphorylation of Ser585 decreased ([2]; TF-1 cells, 10 min stimulation): 10 pM
- GM-CSF concentration at which phosphorylation of Ser585 increased ([2]; TF-1 cells, 10 min stimulation): < 3 pM
- GM-CSF concentration at which phosphorylation of Ser585 was virtually absent ([2]; TF-1 cells, 10 min stimulation): over 100 pM
- GM-CSF concentration that promotes Ser585 phosphorylation, 14-3-3 binding and p85 recruitment ([2]; low concentration signal): < 3 pM
- GM-CSF concentration resulting in phosphorylation of JAK2, STAT5 and ERK (JAK2, STAT5 and ERK): > 10 pM
- PKA activity (PKA): higher and more sustained
- phosphorylation of Ser473 of Akt (Akt): the magnitude was reduced and the kinetics were delayed
